Measurements: the NIST ThermoML archive (doi:10.1021/acs.jced.8b00765)
Values joined by “and” are separate entries in the source; they are usually repeats but may differ in a detail not shown here. Equal values may be shown once.

How the values were obtained:
[1] = refractive index (Na D-line) (dimensionless); conditions: 293.15 K; 101.33 kPa; Liquid; Standard Abbe refractometry
[2] = Liquid; for vapor or sublimation pressure: Closed cell (Static) method; for mass density: 101.33 kPa, Vibrating tube method

CCCCC [pentane]
Conditions | refractive index
[1] | 1.358

[2]
Conditions | mass density [kg/m3] | vapor or sublimation pressure [kPa]
288.18 K | – | 46.5
293.15 K | 626 | –
293.18 K | – | 56.6
293.2 K | – | 56.6
298.18 K | – | 68.5
298.19 K | – | 68.5
303.17 K | – | 82.2
303.18 K | – | 82.2
308.17 K | – | 97.9

CC(C)O [propan-2-ol]
Conditions | refractive index
[1] | 1.377

[2]
Conditions | mass density [kg/m3] | vapor or sublimation pressure [kPa]
293.16 K | – | 4.2
293.18 K | – | 4.2
298.17 K | – | 5.8
303.15 K | – | 7.8
303.16 K | – | 7.9
308.15 K | – | 10.5
313.14 K | – | 13.9
313.15 K | 768 | –
313.16 K | – | 14

C=CCCCC [hex-1-ene]
Conditions | refractive index
[1] | 1.388

[2]
Conditions | mass density [kg/m3] | vapor or sublimation pressure
293.18 K | – | 19.9 kPa and 20 kPa
298.18 K | – | 24.8 kPa
303.16 K | – | 30.5 kPa
303.17 K | – | 30.6 kPa
308.16 K | – | 37.2 kPa
313.15 K | 655 | 45.1 kPa
313.16 K | – | 45.1 kPa

C1CCCCC1 [cyclohexane]
Conditions | refractive index
[1] | 1.426

[2]
Conditions | mass density [kg/m3] | vapor or sublimation pressure [kPa]
293.17 K | – | 10.4
293.21 K | – | 10.6
298.18 K | – | 13.4
298.19 K | – | 13.1
303.16 K | – | 16.4
303.18 K | – | 16.4
308.15 K | 765 | 20.3
313.17 K | – | 24.9
